Consider twelve compounds from patent US11666566B2, “Formulations and pharmacokinetics of deuterated benzoquinoline inhibitors of vesicular monoamine transporter 2” (AUSPEX PHARMACEUTICALS, INC., priority 2012, dated 2023).

Data set [1] is described as follows: Phase 1 pharmacokinetic study, single oral 25 mg dose of d6-tetrabenazine or tetrabenazine (immediate release, powder in capsule), two-period crossover. Format: in vivo, human. The following applies: for Cmax / AUCinf / AUClast / Tmax / t1/2: plasma analyte, single oral 25 mg d6-tetrabenazine or tetrabenazine; for Cmax / AUCinf (AUClast presented for parent drug as AUCinf not calculable) / AUCinf / AUClast / Tmax / t1/2: fasted, mean; for AUCinf (AUClast presented for parent drug as AUCinf not calculable): parent drug in plasma, single oral 25 mg; for Ratio of LS Means, AUCinf / Ratio of LS Means, AUClast / Ratio of LS Means, Cmax / Ratio of LS Means, t1/2: d6-tetrabenazine 25 mg (test) to tetrabenazine 25 mg (reference), ANOVA. On the procedure: A Phase 1 pharmacokinetic study was conducted in 24 healthy extensive and intermediate CYP2D6 metabolizer volunteers receiving oral 25 mg doses of d6-tetrabenazine or tetrabenazine to compare the relative bioavailability and pharmacokinetics of single oral doses of d6-tetrabenazine and its metabolites d6-α-HTBZ and d6-β-HTBZ with their non-deuterated equivalents (tetrabenazine, α-HTBZ and β-HTBZ) as well as the corresponding O-desmethyl metabolites of α-HTBZ and β-HTBZ. Subjects received a single oral dose of 25 mg of d6-tetrabenazine or tetrabenazine after an overnight fast, as a powder in capsule, in Period 1 and following washout of at least 7 days. Patients were crossed over to receive the other treatment in Period 2. In each period, plasma samples were collected over 72 hours post-dose.
Pharmacokinetic results are shown below in Table 37 and FIG. 3, results are presented as Mean (% CV) for Cmax, AUC and t1/2 (AUClast presented for parent drug as AUCinf not calculable), and as Mean (range) for Tmax. The increased exposure was principally attributable to increases in half-life and was associated with proportional reductions in O-desmethyl metabolites of HTBZ.
The effect of deuteration on key pharmacokinetic parameters was evaluated by comparing d6-tetrabenazine (test) to tetrabenazine (reference) using an analysis of variance (ANOVA) model for a two-period crossover including factors Sequence, Treatment, Period and Subject. Pharmacokinetic parameters were log-transformed before analysis.

Data set [2] is classed as in vitro ADME. An excerpt: d6-Tetrabenazine has been designed with the intent to improve the pharmacokinetic profile of active metabolites α-HTBZ and β-HTBZ. The CYP mediated cleavage of the carbon-deuterium bonds within the trideuterated methyl groups (CD3) of d6-tetrabenazine is slower than the cleavage of the carbon-hydrogen bonds in the methyl groups (CH3) of tetrabenazine, an effect that selectively attenuated O-demethylation of deuterated α-HTBZ and β-HTBZ (d6-α-HTBZ and d6-β-HTBZ) in in vitro studies.
The spectrum of metabolites produced by d6-tetrabenazine is expected to be similar to that in patients with reduced CYP2D6 metabolism who receive tetrabenazine. This is based on in vitro metabolism studies and a drug interaction study of tetrabenazine and paroxetine. In the drug interaction study, co-administration of tetrabenazine and paroxetine increased systemic exposure to the α-HTBZ and β-HTBZ metabolites by 3- to 9-fold, respectively, compared to tetrabenazine alone (Xenazine® U.S. prescribing information). […] Administration of d6-tetrabenazine to healthy volunteers led to an approximate 2-fold increase in systemic exposure to α-HTBZ and β-HTBZ and proportional reductions in O-desmethyl metabolites compared to tetrabenazine. […]

For data set [3] the following is noted: co-administration of tetrabenazine and paroxetine, compared to tetrabenazine alone; cited from earlier work.
The conditions of data set [4]: human plasma; cited from earlier work.

Broadly, the Cmax is the peak of the concentration-time curve. By Tmax is commonly meant the time from dosing to the highest level.

Like-named read-outs stand apart in the source and are kept apart here.

Turning to `COc1cc2c(cc1OC)[C@@H]1CC(=O)[C@@H](CC(C)C)CN1CC2` (racemic) [Tetrabenazine, (3R,11bR)-1,3,4,6,7,11b-Hexahydro-9,10-dimethoxy-3-(2-methylpropyl)-2H-benzo[a]quinolizin-2-one, and (3S,11bS)-1,3,4,6,7,11b-hexahydro-9,10-dimethoxy-3-(2-methylpropyl)-2H-benzo[a]quinolizin-2-one, reference compound], in data set [1] (human, read-out: Cmax), the Cmax was 0.314 ng/mL. Besides, the “AUCinf (AUClast presented for parent drug as AUCinf not calculable)” value in data set [1] was 0.26 ng·h/mL.
Turning to `[2H]C([2H])([2H])Oc1cc2c(cc1OC([2H])([2H])[2H])[C@@H]1CC(=O)[C@@H](CC(C)C)CN1CC2` (racemic) [d6-Tetrabenazine, (3R,11bR)-1,3,4,6,7,11b-hexahydro-9,10-di(methoxy-d3)-3-(2-methylpropyl)-2H-benzo[a]quinolizin-2-one and (3S,11bS)-1,3,4,6,7,11b-hexahydro-9,10-di(methoxy-d3)-3-(2-methylpropyl)-2H-benzo[a]quinolizin-2-one], in data set [1] (compared to exposure following tetrabenazine administration), the “systemic exposure to total (α+β)-HTBZ” value is given as “more than doubling”. Further, the Cmax in data set [1] (human, read-out: Cmax) is 0.327 ng/mL. Besides, the “AUCinf (AUClast presented for parent drug as AUCinf not calculable)” value in data set [1] is 0.30 ng·h/mL.
On to `COc1cc2c(cc1O)CCN1C[C@@H](CC(C)C)[C@H](O)C[C@H]21` [9-O-desmethyl-α-HTBZ], for which, in data set [1], the AUCinf came to 49.9 ng·h/mL, the AUClast was 42.5 ng·h/mL, the Cmax worked out at 5.05 ng/mL and the Tmax was found to be 2.00 h. The t1/2 in data set [1] is 6.95 h.
Taken in the same sequence, the figures for `COc1cc2c(cc1O)CCN1C[C@@H](CC(C)C)[C@@H](O)C[C@H]21` [9-O-desmethyl-β-HTBZ] were 220 ng·h/mL, 205 ng·h/mL, 15.7 ng/mL, 1.75 h and 16.2 h.
As for `COc1cc2c(cc1O)C1CC(O)C(CC(C)C)CN1CC2` (stereo not drawn) [10-ODM-β-HTBZ], in data set [1], the AUClast is 3.0 ng·h/mL, the Cmax is on record as 1.63 ng/mL and the Tmax worked out at 1.25 h.
Consider `[2H]C([2H])([2H])Oc1cc2c(cc1O)CCN1C[C@@H](CC(C)C)[C@@H](O)C[C@H]21` [d3-9-O-desmethy1-β-HTBZ], for which, in data set [1], the AUCinf was 114 ng·h/mL, the AUClast came out at 92.4 ng·h/mL, the Cmax came out at 6.29 ng/mL and the Tmax stood at 1.75 h. The t1/2 in data set [1] is 16.9 h.
With `[2H]C([2H])([2H])Oc1cc2c(cc1O)CCN1C[C@@H](CC(C)C)[C@H](O)C[C@H]21` [d3-9-O-desmethyl-α-HTBZ], in data set [1], the AUClast worked out at 21.0 ng·h/mL, the Cmax is 2.15 ng/mL and the Tmax came out at 3.02 h.
Taken in the same sequence, the figures for `[2H]C([2H])([2H])Oc1cc2c(cc1O)C1CC(O)C(CC(C)C)CN1CC2` (stereo not drawn) [d3-10-ODM-β-HTBZ] were 0.7 ng·h/mL, 0.59 ng/mL and 1.50 h.
As to `[2H]C([2H])([2H])Oc1cc2c(cc1OC([2H])([2H])[2H])[C@H]1C[C@@H](O)[C@H](CC(C)C)CN1CC2` [d6-α-HTBZ, deuterated alpha-dihydrotetrabenazine], in data set [2], the “less of the O-desmethyl metabolites produced” value is listed as 69-87%. In addition, in data set [1], the AUCinf was determined as 373 ng·h/mL, the Cmax is 46.1 ng/mL, the Tmax stood at 1.5 h and the t1/2 came out at 8.97 h.
For `[2H]C([2H])([2H])Oc1cc2c(cc1OC([2H])([2H])[2H])[C@@H]1C[C@@H](O)[C@@H](CC(C)C)CN1CC2` [d6-β-HTBZ, deuterated beta-dihydrotetrabenazine], the “less of the O-desmethyl metabolites produced” value in data set [2] is 69-87%. Also, in data set [1], the AUCinf is 171 ng·h/mL, the maximum concentration (Cmax) is given as 29.6 ng/mL, the Tmax is 1.50 h and the t1/2 was determined as 5.00 h.
As to `COc1cc2c(cc1OC)[C@H]1C[C@H](O)[C@H](CC(C)C)CN1CC2` [β-HTBZ, beta-dihydrotetrabenazine], in data set [3], the “increase in systemic exposure” value is given as 9 fold. In data set [1], the “Ratio of LS Means, AUCinf” value was 235.8%; the “Ratio of LS Means, AUClast” value amounted to 240.1%; the “Ratio of LS Means, Cmax” value came to 145.8%; the “Ratio of LS Means, t1/2” value is reported as 153.0%. In data set [1], the AUCinf came to 74.0 ng·h/mL, the Cmax was 20.5 ng/mL, the Tmax was 1.00 h and the t1/2 was 2.95 h. In data set [4], the half-lives was 5 h.
As to alpha-dihydrotetrabenazine [α-HTBZ], the “increase in systemic exposure” value in data set [3] is on record as 3 fold. In data set [1], the “Ratio of LS Means, AUCinf” value was 213.6%; the “Ratio of LS Means, AUClast” value was found to be 214.8%; the “Ratio of LS Means, Cmax” value is reported as 113.7%; the “Ratio of LS Means, t1/2” value worked out at 174.7%. Moreover, in data set [1], the AUCinf is 189 ng·h/mL, the Cmax is on record as 41.2 ng/mL, the Tmax worked out at 1.00 h and the t1/2 was determined as 5.47 h. Also, in data set [4], the half-lives was 7 h.
